Measured values from ChEMBL document CHEMBL4406871, “Novel berberine-based derivatives with potent hypoglycemic activity” (Bioorg Med Chem Lett, 2019).
Calls of active or inactive are those of the source. The calls are words filed in the database; no cut-off is given here.

Experiments:
HepG2 [1] = test: Activation of AMPKalpha in human HepG2 cells assessed as induction of AMPKalpha phosphorylation at Thr172 residue at 10 uM by Western blot analysis; assay type: cell-based
[2] = target: T1, Peroxisome proliferator-activated receptor gamma (Homo sapiens, UniProt P37231); test: Transactivation of human PPARgamma transfected in U2OS cells co-tranfected with human RXR measured after 24 hrs by luciferase reporter assay; assay type: cell-based
T1 sequence (P37231 whole entry): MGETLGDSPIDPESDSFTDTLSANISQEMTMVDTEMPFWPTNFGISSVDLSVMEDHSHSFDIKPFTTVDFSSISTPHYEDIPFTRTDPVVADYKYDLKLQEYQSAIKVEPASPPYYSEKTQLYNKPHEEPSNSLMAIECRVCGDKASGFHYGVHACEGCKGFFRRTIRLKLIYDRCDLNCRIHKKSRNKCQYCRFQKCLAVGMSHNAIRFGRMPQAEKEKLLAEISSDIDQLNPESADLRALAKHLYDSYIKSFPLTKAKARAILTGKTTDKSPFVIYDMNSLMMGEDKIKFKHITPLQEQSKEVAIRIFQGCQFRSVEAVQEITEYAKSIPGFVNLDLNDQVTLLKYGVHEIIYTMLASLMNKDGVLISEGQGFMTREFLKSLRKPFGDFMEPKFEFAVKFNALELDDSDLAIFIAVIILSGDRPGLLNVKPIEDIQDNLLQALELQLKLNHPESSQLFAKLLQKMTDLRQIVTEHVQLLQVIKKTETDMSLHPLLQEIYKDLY

[3] = target: AMP-activated protein kinase, AMPK (Homo sapiens) (UniProt P54646+O43741+P54619+Q9UGJ0+Q9Y478+Q13131+Q9UGI9); test: Activation of AMPK in human HepG2 cells assessed as induction of ACC phosphorylation at Ser79 residue at 10 uM by Western blot analysis; assay type: cell-based
HepG2 [4] = test: Increase in glucose consumption in human HepG2 cells assessed as glucose content in medium at 10^-6 M measured after 24 hrs by glucose oxidase method relative to control; assay type: functional
HepG2 [5] = test: Increase in glucose consumption in human HepG2 cells assessed as glucose content in medium at 10^-6 M measured after 24 hrs by glucose oxidase method relative to berberine; assay type: functional
HepG2 [6] = test: Increase in glucose consumption in human HepG2 cells assessed as glucose content in medium at 10^-6 M measured after 24 hrs by glucose oxidase method relative to rosiglitazone; assay type: functional
HepG2 [7] = test: Increase in glucose consumption in human HepG2 cells assessed as glucose content in medium at 10^-6 M measured after 24 hrs by glucose oxidase method relative to metformin; assay type: functional
[8] = Oral bioavailability in rat; assay type: ADME, organism-based; settings: in vivo
[9] = target: AMP-activated protein kinase (AMPK) alpha-1/beta-1/gamma-1 (Homo sapiens) (UniProt P54619+Q9Y478+Q13131); test: Agonist activity at AMPKalpha1beta1gamma1 (unknown origin); assay type: protein-complex assay
Chain of AMP-activated protein kinase (AMPK) alpha-1/beta-1/gamma-1 (Homo sapiens) (P54619 whole entry): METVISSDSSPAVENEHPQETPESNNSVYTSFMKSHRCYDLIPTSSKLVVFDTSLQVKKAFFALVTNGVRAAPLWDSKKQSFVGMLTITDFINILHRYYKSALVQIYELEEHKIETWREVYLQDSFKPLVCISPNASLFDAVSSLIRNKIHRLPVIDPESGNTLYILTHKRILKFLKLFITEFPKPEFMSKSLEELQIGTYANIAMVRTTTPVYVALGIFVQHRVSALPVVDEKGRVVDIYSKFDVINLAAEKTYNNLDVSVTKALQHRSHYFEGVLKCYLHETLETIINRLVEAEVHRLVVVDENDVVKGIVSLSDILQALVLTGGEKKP
Chain of AMP-activated protein kinase (AMPK) alpha-1/beta-1/gamma-1 (Homo sapiens) (Q13131 whole entry partner): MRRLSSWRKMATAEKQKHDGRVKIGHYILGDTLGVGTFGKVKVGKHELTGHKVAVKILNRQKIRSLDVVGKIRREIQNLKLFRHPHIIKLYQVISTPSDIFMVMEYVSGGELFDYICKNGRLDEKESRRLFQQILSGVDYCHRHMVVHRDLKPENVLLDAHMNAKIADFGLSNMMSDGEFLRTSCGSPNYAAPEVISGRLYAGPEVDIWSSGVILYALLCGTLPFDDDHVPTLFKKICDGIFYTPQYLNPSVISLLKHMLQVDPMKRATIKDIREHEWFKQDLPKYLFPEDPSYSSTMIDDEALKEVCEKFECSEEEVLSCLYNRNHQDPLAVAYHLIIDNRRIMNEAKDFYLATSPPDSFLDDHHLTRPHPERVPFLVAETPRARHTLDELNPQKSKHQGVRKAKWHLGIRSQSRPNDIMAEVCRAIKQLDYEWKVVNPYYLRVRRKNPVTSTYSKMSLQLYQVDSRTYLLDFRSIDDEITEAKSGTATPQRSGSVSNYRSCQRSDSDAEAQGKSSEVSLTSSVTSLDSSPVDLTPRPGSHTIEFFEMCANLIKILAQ
Chain of AMP-activated protein kinase (AMPK) alpha-1/beta-1/gamma-1 (Homo sapiens) (Q9Y478 2-270 partner limits assumed): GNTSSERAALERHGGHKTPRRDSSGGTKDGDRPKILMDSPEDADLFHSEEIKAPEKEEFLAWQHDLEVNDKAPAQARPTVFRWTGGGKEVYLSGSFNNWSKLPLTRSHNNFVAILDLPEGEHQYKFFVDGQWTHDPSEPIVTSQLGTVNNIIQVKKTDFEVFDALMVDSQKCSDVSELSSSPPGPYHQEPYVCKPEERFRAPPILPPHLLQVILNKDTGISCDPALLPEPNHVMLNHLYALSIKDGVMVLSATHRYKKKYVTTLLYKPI

SMILES	Activity (HepG2 [4])	also measured
COc1cc2cc3[n+](cc2cc1OC)C(C(=O)O)Cc1cc2c(cc1-3)OCO2.[Cl-] (stereo unspecified)	6.92%	Activity (HepG2 [1]): Active; EC50 [2]: > 100 µM; Activity [3]: Active
COc1ccc2c(c1OC)C[N+]1(CC(=O)O)CCc3cc4c(cc3C1C2)OCO4.[Cl-] (stereo unspecified)	15.4%	–
COc1ccc(OC)c2c1CC1c3cc4c(cc3CC(C(=O)O)N1C2)OCO4 (stereo unspecified)	12.43%	–
COc1ccc(OC)c2c[n+]3c(cc12)-c1cc2c(cc1CC3C(=O)O)OCO2.[Cl-] (stereo unspecified)	7.44%	–
COc1ccc2c(c1OC)CN1C(CC(=O)O)Cc3cc4c(cc3C1C2)OCO4 (stereo unspecified)	7.16%	–
COc1ccc(OC)c2c[n+]3c(cc12)-c1cc2c(cc1CC3CC(=O)O)OCO2.[Cl-] (stereo unspecified)	9.44%	–
COc1ccc2c(c1OC)C[N+]1(CCCCCC(=O)O)CCc3cc4c(cc3C1C2)OCO4.[Cl-] (stereo unspecified)	15.78%	–
COc1ccc2c(c1OC)CN1C(C(=O)O)Cc3cc4c(cc3C1C2)OCO4 (stereo unspecified)	6.39%	–
COc1cc2c[n+]3c(cc2c(OC)c1OC)-c1cc2c(cc1CC3CC(=O)O)OCO2.[Cl-] (stereo unspecified)	10.18%	–
COc1ccc2c(c1OC)C[N+]1(CCCCC(=O)O)CCc3cc4c(cc3C1C2)OCO4.[Cl-] (stereo unspecified)	14.52%	–
CN(C)C(=N)NC(=N)N [METFORMIN]	12.07%	–
COc1cc(OC)c2cc3[n+](cc2c1)C(CC(=O)O)Cc1cc2c(cc1-3)OCO2.[Cl-] (stereo unspecified)	9.02%	–
COc1ccc2c(c1OC)C[N+]1(Cc3ccc(C(=O)O)cc3)CCc3cc4c(cc3C1C2)OCO4.[Cl-] (stereo unspecified)	12.11%	–
COc1ccc2cc3[n+](cc2c1OC)C(CC(=O)O)Cc1cc2c(cc1-3)OCO2.[Cl-] (stereo unspecified)	2.8%	–
CN(CCOc1ccc(CC2SC(=O)NC2=O)cc1)c1ccccn1 (stereo unspecified) [ROSIGLITAZONE]	13.87%	–
COc1cc2c(cc1OC)CN1C(C(=O)O)Cc3cc4c(cc3C1C2)OCO4 (stereo unspecified)	16.76%	fold change (FC) (HepG2 [5]): 3.23; Activity (HepG2 [1]): Active; EC50 [2]: > 100 µM; Activity [3]: Active; fold change (FC) (HepG2 [6]): 1.2; fold change (FC) (HepG2 [7]): 1.39
COc1ccc2cc3[n+](cc2c1OC)CCc1cc2c(cc1-3)OCO2.[Cl-] [BERBERINE CHLORIDE]	5.16%	bioavailability [8]: < 1%
COc1cc2c[n+]3c(cc2c(OC)c1OC)-c1cc2c(cc1CC3C(=O)O)OCO2.[Cl-] (stereo unspecified)	9.1%	–
O=C(O)C1CCC2C(C1)c1cc(OCc3ccccc3)ccc1N2C(=O)c1ccc(Cl)cc1 (stereo unspecified)	–	Activity [9]: 362 nM
COc1ccc2c(c1OC)C[N+]1(CCCC(=O)O)CCc3cc4c(cc3C1C2)OCO4.[Cl-] (stereo unspecified)	16%	fold change (FC) (HepG2 [6]): 1.15; fold change (FC) (HepG2 [7]): 1.32
COc1cc2c(c(OC)c1)CC1c3cc4c(cc3CC(C(=O)O)N1C2)OCO4 (stereo unspecified)	9.65%	–
COc1cc(OC)c2cc3[n+](cc2c1)C(C(=O)O)Cc1cc2c(cc1-3)OCO2.[Cl-] (stereo unspecified)	8.62%	–
COc1ccc2cc3[n+](cc2c1OC)C(C(=O)O)Cc1cc2c(cc1-3)OCO2.[Cl-] (stereo unspecified)	1.88%	–
COc1cc2cc3[n+](cc2cc1OC)C(CC(=O)O)Cc1cc2c(cc1-3)OCO2.[Cl-] (stereo unspecified)	15.31%	–
